The target of this test is T1, NLRP3 (Homo sapiens, UniProt Q96P20).
T1 construct: host or cells: THP-1 cells differentiated with PMA
The test can be described thus: IL-1β Secretion Assay (NLRP3-dependent IL1β secretion in THP1 cells). It is filed as cell-based. To be noted: PMA-differentiated THP-1 cells; compounds incubated 20 h; 2.5 μM Nigericin 3 h; HTRF IL-1β readout; read-out: IC50 IL-1β Inhibition. An outline of the steps:
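IL-1β in conditioned media, measured by HTRF after 3 h 2.5 μM nigericin stimulation, gave % inhibition fitted logistically for IC50. Before that, PMA-differentiated (100 ng/mL, 24 h) THP-1 cells were preincubated 20 h with 7 compound concentrations (3-fold serial, DMSO 1:200).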

The values that follow come from patent US20250179078A1, “INHIBITORS OF NLRP3” (PTC THERAPEUTICS, INC., priority 2022, published 2025).

Molecules are shown by their SMILES. Bounds are passed on as bounds.

T1 sequence (Q96P20 whole entry): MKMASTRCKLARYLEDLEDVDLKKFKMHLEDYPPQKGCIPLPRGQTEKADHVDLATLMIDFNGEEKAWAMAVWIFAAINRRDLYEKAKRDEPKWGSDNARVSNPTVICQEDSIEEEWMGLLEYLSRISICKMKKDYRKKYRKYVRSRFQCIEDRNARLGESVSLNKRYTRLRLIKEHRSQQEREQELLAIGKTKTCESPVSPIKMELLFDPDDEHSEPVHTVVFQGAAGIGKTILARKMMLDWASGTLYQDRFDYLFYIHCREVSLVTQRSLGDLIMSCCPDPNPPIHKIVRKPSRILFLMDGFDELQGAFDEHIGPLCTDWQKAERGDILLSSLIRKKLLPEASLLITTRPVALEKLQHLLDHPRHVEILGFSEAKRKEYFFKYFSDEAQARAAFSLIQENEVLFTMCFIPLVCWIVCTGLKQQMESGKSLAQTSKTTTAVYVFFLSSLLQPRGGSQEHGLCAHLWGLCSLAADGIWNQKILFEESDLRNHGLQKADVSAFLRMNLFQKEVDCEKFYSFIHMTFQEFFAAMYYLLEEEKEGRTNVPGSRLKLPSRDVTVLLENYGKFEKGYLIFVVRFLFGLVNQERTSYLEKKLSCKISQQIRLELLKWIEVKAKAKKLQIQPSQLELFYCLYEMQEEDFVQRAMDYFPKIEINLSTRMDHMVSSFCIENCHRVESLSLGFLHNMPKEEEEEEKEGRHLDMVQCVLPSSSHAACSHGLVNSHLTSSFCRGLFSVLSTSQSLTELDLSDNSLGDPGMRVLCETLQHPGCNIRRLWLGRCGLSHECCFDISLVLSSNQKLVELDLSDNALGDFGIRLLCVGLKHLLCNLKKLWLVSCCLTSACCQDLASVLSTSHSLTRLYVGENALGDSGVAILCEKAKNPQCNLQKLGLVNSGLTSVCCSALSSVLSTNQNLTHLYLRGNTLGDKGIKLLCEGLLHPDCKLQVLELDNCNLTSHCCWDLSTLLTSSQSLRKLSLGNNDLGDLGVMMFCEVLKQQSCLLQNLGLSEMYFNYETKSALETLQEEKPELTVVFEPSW

As to `O=C1NCCC1Nc1nnc(-c2ccc(C(F)(F)F)cc2OC(F)(F)F)c2cccn12` (stereo not drawn) [Compound 124, 3-({1-[2-(trifluoromethoxy)-4-(trifluoromethyl)phenyl]pyrrolo[1,2-d][1,2,4]triazin-4-yl}amino)pyrrolidin-2-one], the IC50 – broadly, the concentration needed to halve the response being measured – was in the range of 0.001 to 0.01 µM.

`Cc1cc2c(-c3ccc(C(F)(F)F)cc3C(F)(F)F)nnc(N[C@@H]3CCCN(C)C3)n2c1` [Compound 109, 1-[2,4-bis(trifluoromethyl)phenyl]-7-methyl-N-[(3R)-1-methylpiperidin-3-yl]pyrrolo[1,2-d][1,2,4]triazin-4-amine]: the IC50 lay within 0.001 to 0.01 µM. Under `CCN1CC[C@@H](O)[C@@H](Nc2nnc(-c3ccc(C(F)(F)F)cc3OC(F)F)c3cccn23)C1` [Compound 48, (3S,4R)-3-({1-[2-(difluoromethoxy)-4-(trifluoromethyl)phenyl]pyrrolo[1,2-d][1,2,4]triazin-4-yl}amino)-1-ethylpiperidin-4-ol] stands below 0.001 µM; under `CCN1CC[C@@H](O)[C@@H](Nc2nnc(-c3ccc(C(F)(F)F)cc3C(F)(F)F)c3cc(C)cn23)C1` [Compound 134, (3S,4R)-3-({1-[2,4-bis(trifluoromethyl)phenyl]-7-methylpyrrolo[1,2-d][1,2,4]triazin-4-yl}amino)-1-ethylpiperidin-4-ol], 0.001 to 0.01 µM; under `Cc1cc2c(-c3ccc(C(F)(F)F)cc3OC(F)(F)F)nnc(N[C@@H]3CCCC[C@H]3O)n2n1` [Compound 382, (1R,2R)-2-({2-methyl-4-[2-(trifluoromethoxy)-4-(trifluoromethyl)phenyl]pyrazolo[1,5-d][1,2,4]triazin-7-yl}amino)cyclohexan-1-ol], 0.01 to 0.1 µM.

Regarding `CCN1CCC[C@@H](Nc2nnc(-c3ccc(S(C)(=O)=O)cc3OC(F)(F)F)c3cc(C)nn23)C1` [Compound 369, N-[(3R)-1-ethylpiperidin-3-yl]-4-[4-(methanesulfonyl)-2-(trifluoromethoxy)phenyl]-2-methylpyrazolo[1,5-d][1,2,4]triazin-7-amine], the IC50 fell in the range of 0.01 to 0.1 µM.

As to `O[C@@H]1CCCC[C@H]1Nc1nnc(-c2ccc(C(F)(F)F)cc2CC(F)(F)F)c2cccn12` [Compound 90, (1R,2R)-2-({1-[2-(2,2,2-trifluoroethyl)-4-(trifluoromethyl)phenyl]pyrrolo[1,2-d][1,2,4]triazin-4-yl}amino)cyclohexan-1-ol], the concentration for half-maximal inhibition (IC50) is below 0.001 µM.

As to `C[C@]1(O)C[C@@H](Nc2nnc(-c3ccc(Cl)cc3OC(F)(F)F)c3cncn23)C1` [Compound 299, (1s,3s)-3-({1-[4-chloro-2-(trifluoromethoxy)phenyl]imidazo[1,5-d][1,2,4]triazin-4-yl}amino)-1-methylcyclobutan-1-ol], the IC50 was 0.001 to 0.01 µM. Next, `Cc1cc2c(-c3ccc(C(F)(F)F)cc3OC(F)F)nnc(N[C@H]3C[C@@](C)(O)C3)n2n1` [Compound 380, (1s,3s)-3-({4-[2-(difluoromethoxy)-4-(trifluoromethyl)phenyl]-2-methylpyrazolo[1,5-d][1,2,4]triazin-7-yl}amino)-1-methylcyclobutan-1-ol]: 0.001 to 0.01 µM; `COc1ccc(-c2nnc(N[C@@H]3CCCN(CCO)C3)n3ccc(F)c23)c(OC(F)(F)F)c1` [Compound 51, 2-[(3R)-3-({8-fluoro-1-[4-methoxy-2-(trifluoromethoxy)phenyl]pyrrolo[1,2-d][1,2,4]triazin-4-yl}amino)piperidin-1-yl]ethan-1-ol]: 0.001 to 0.01 µM. On to `COc1ccc(-c2nnc(NC(C)c3cccc(O)c3)n3cncc23)c(OC(F)(F)F)c1` (single isomer, unassigned) [Compound 247], for which the IC50 was below 0.001 µM. Under `Cc1cc2c(-c3ccc(Cl)cc3OC(F)F)nnc(N[C@@H]3CCCN(C)C3)n2c1` [Compound 13, 1-[4-chloro-2-(difluoromethoxy)phenyl]-7-methyl-N-[(3R)-1-methylpiperidin-3-yl]pyrrolo[1,2-d][1,2,4]triazin-4-amine] stands 0.001 to 0.01 µM.
